Assays:
Type in all cases: organism-based
Details in all cases: artemia, in vivo
[1] = Toxicity in brine shrimp at 1000 ppm
[2] = Toxicity in brine shrimp at 250 ppm
[3] = Toxicity in brine shrimp at 500 ppm

CC(=O)OC[C@H]1O[C@@H](OC(=O)/C(C)=C(\C)C[C@@H](O)[C@@H](C)[C@H]2CC[C@H]3[C@@H]4CC=C5C[C@@H](O[C@@H]6O[C@H](CO)[C@@H](O)[C@H](O)[C@H]6O)C[C@H](O)[C@]5(C)[C@H]4CC[C@]23C)[C@H](O[C@@H]2O[C@H](CO)[C@@H](O[C@@H]3O[C@H](CO)[C@@H](O)[C@H](O)[C@H]3O)[C@H](O)[C@H]2O)[C@@H](O)[C@@H]1O
100%: survival at 1000 ppm [1] | survival at 250 ppm [2] | survival at 500 ppm [3]

C/C(C[C@@H](O)[C@@H](C)[C@H]1CC[C@H]2[C@@H]3CC=C4C[C@@H](O[C@@H]5O[C@H](CO)[C@@H](O)[C@H](O)[C@H]5O)C[C@H](O)[C@]4(C)[C@H]3CC[C@]12C)=C(/C)C(=O)O[C@@H]1O[C@H](CO)[C@@H](O)[C@H](O)[C@H]1O[C@@H]1O[C@H](CO)[C@@H](O)[C@H](O)[C@H]1O
100%: survival at 1000 ppm [1] | survival at 250 ppm [2] | survival at 500 ppm [3]

C/C(C[C@@H](O)[C@@H](C)[C@H]1CC[C@H]2[C@@H]3CC=C4C[C@@H](O)C[C@H](O)[C@]4(C)[C@H]3[C@@H](O)C[C@]12C)=C(/C)C(=O)O[C@@H]1O[C@H](CO)[C@@H](O)[C@H](O)[C@H]1O
100%: survival at 1000 ppm [1] | survival at 250 ppm [2] | survival at 500 ppm [3]

CC(=O)OC[C@H]1O[C@@H](OC(=O)/C(C)=C(\C)C[C@@H](O)[C@@H](C)[C@H]2CC[C@H]3[C@@H]4CC=C5C[C@@H](O[C@@H]6O[C@H](CO)[C@@H](O)[C@H](O)[C@H]6O)C[C@H](O)[C@]5(C)[C@H]4CC[C@]23C)[C@H](O[C@@H]2O[C@H](CO)[C@@H](O)[C@H](O)[C@H]2O)[C@@H](O)[C@@H]1O
100%: survival at 1000 ppm [1] | survival at 250 ppm [2] | survival at 500 ppm [3]

CC(=O)OC[C@H]1O[C@@H](OC(=O)/C(C)=C(\C)C[C@@H](O)[C@@H](C)[C@H]2CC[C@H]3[C@@H]4CC=C5C[C@@H](O[C@@H]6O[C@H](CO)[C@@H](O)[C@H](O)[C@H]6O)C[C@H](O)[C@]5(C)[C@H]4CC[C@]23C)[C@H](O[C@@H]2O[C@H](COC(C)=O)[C@@H](O[C@@H]3O[C@H](CO)[C@@H](O)[C@H](O)[C@H]3O)[C@H](O)[C@H]2O)[C@@H](O)[C@@H]1O
100%: survival at 1000 ppm [1] | survival at 250 ppm [2] | survival at 500 ppm [3]

CC(=O)OC[C@H]1O[C@@H](OC(=O)/C(C)=C(\C)C[C@@H](O)[C@@H](C)[C@H]2CC[C@H]3[C@@H]4CC=C5C[C@@H](O)C[C@H](O)[C@]5(C)[C@H]4[C@@H](O)C[C@]23C)[C@H](O[C@@H]2O[C@H](CO)[C@@H](O)[C@H](O)[C@H]2O)[C@@H](O)[C@@H]1O
100%: survival at 1000 ppm [1] | survival at 250 ppm [2] | survival at 500 ppm [3]
